For assay [1], the target named is T1, Polyadenylate-binding protein 1 (Homo sapiens, UniProt P11940). Briefly: PABP1 MLLE–PAM2 interaction inhibitors, dose response, miRNA deadenylation inhibitor project, biochemical, fluorescence polarization, Cy5-PAM2 peptide, secondary (AID 602260). The assay is classed as functional. Conditions: read-out: IC50_Mean. In general terms: Polarisation of emitted light reports the rotation of a fluorescent probe.

Assay [2] deals with T1, Polyadenylate-binding protein 1. Briefly: PABP1 MLLE–PAM2 binding inhibitor potency, dose response, biochemical, fluorescence polarization, FITC-PAM2 peptide (AID 602259). The assay is classed as functional. Conditions: read-out: IC50_Mean.
In another assay the target is T2, Protein skinhead-1 (Caenorhabditis elegans, UniProt P34707).
T2 sequence (P34707 whole entry): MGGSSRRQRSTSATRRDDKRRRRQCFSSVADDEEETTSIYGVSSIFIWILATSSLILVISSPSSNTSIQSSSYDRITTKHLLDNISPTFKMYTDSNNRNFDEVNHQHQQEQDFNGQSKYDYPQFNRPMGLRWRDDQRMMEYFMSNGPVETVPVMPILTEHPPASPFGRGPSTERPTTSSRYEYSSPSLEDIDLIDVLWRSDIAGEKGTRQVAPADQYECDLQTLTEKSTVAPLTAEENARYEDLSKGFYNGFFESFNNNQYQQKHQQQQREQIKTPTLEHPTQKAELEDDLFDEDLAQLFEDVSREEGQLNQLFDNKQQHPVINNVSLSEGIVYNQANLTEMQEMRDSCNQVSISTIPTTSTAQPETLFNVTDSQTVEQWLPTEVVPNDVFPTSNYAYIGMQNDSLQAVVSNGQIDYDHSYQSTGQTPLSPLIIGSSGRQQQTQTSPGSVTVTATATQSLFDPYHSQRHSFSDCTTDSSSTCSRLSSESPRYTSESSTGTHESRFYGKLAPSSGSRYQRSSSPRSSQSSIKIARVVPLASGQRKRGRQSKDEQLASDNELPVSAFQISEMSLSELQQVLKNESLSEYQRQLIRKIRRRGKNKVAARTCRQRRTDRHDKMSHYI
The assay is classed as functional.

Assay [3] in a line: cells. Format: functional, cell-based.
A short description of assay [4]: cells. Format: functional, cell-based. The source holds these as a separate data set.
The target in assay [5] is T3, RNA-binding protein pos-1 (Caenorhabditis elegans, UniProt G5EF15).
T3 sequence (G5EF15 whole entry): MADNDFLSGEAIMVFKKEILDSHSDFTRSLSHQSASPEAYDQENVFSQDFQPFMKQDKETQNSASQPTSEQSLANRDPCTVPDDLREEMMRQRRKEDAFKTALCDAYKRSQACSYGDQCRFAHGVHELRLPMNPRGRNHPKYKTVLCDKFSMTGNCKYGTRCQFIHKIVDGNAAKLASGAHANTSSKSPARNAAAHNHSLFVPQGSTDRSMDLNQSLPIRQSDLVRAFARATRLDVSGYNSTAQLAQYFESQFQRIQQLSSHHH
Briefly: inhibitors of POS-1/mex-3 RNA binding, dose response, biochemical, fluorescence polarization (AID 1964).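 Note: purified POS-1 fused to maltose binding protein made in E. coli; potency of compounds blocking POS-1 binding to fluorescent RNA.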

The target in assay [6] is T4, Zinc finger protein mex-5 (Caenorhabditis elegans, UniProt Q9XUB2).
T4 sequence (Q9XUB2 whole entry): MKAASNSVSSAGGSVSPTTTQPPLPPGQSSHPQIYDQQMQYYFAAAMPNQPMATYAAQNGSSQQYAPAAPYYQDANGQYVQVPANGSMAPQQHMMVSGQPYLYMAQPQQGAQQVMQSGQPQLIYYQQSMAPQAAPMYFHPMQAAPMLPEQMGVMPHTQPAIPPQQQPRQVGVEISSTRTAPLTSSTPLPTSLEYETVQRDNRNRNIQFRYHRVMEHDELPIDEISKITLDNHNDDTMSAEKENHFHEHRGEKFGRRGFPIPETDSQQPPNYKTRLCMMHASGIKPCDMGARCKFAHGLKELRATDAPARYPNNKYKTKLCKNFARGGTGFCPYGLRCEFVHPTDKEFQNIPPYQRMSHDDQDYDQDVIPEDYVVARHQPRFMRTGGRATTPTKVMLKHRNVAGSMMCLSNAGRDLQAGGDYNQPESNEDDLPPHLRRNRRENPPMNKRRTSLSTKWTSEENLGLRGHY
Briefly: MEX-5/TCR-2 RNA interaction inhibitors, dose response, biochemical, C. elegans, fluorescence polarization (AID 1960).

Assay [7] deals with T5, Ubiquitin-conjugating enzyme E2 N (Homo sapiens, UniProt P61088).
T5 sequence (P61088 whole entry): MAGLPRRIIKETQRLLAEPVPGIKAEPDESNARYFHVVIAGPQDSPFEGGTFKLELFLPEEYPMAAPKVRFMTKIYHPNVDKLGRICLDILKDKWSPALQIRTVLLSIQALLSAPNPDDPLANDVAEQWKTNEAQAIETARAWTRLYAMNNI
Format: functional.

Assay [8] is described as follows: microbe, parasite or virus in culture. Format: functional. Conditions: Mycobacterium tuberculosis.
In a further assay the target is T6, Streptokinase A (Streptococcus pyogenes serotype M1, UniProt P10520).
T6 sequence (P10520 whole entry): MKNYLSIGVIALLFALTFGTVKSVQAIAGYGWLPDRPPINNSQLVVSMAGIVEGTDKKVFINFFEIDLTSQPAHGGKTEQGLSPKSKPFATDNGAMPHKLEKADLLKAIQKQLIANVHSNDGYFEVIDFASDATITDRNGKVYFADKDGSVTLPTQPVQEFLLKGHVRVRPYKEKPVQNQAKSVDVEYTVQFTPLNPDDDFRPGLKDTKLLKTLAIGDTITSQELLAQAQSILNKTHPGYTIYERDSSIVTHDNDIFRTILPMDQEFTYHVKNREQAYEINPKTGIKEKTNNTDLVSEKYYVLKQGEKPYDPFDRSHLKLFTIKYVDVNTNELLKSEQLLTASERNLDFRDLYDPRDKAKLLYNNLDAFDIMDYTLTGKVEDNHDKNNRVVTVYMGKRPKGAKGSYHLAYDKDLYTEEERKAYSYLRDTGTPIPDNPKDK
The assay is described as follows: S. pyogenes streptokinase expression inhibitors, potency, dose response, plasminogen activation absorbance, OD405 (AID 1914).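 Note: secreted streptokinase activity via plasminogen activation per viability signal from cell pellet.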 The assay is classed as functional, Streptococcus pyogenes M1 GAS.

Assay [9] concerns Streptococcus sp. 'group A'. The assay is described as follows: growth inhibition of control SK(-) GAS strain, dose response, counter-screen for streptokinase expression inhibitor project, luminescence, kanamycin, BacTiterGlo, confirmation (AID 1900). Format: functional, organism-based. On the technique in general: The purpose of a counterscreen is to sort out artefacts and off-target activity.

The test system of the next assay is Streptococcus. Briefly: Group A Streptococcus viability loss, dose response, counter-screen for streptokinase expression inhibitor project, luminescence, BacTiterGlo (AID 1915).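 Note: potency for reduction of bacterial viability or growth.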 Format: functional, organism-based.
The target of assay [10] is T7, Replicative DNA helicase DnaB (Mycobacterium tuberculosis, UniProt P9WMR3).
T7 sequence (P9WMR3 whole entry): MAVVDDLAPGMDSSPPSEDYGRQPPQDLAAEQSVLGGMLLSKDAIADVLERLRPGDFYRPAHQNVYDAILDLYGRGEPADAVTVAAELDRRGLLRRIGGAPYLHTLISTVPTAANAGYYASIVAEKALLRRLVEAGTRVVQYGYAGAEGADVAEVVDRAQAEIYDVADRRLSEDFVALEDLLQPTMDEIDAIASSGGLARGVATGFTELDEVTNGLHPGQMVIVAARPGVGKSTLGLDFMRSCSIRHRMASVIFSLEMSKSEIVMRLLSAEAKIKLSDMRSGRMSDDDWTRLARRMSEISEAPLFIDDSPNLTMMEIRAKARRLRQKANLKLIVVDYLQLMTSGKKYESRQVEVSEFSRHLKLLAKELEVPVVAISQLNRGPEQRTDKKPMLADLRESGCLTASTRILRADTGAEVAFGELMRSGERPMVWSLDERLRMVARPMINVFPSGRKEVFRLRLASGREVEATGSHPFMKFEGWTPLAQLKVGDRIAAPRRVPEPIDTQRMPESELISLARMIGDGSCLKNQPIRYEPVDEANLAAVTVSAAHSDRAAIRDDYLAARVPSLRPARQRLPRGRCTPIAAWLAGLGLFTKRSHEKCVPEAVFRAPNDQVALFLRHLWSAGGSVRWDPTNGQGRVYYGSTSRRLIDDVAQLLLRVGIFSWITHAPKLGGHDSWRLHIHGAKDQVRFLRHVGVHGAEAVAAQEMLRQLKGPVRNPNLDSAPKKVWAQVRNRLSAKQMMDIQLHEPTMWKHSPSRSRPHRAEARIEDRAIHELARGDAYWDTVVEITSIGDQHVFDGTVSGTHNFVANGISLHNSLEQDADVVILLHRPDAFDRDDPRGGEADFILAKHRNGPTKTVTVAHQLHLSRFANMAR
Briefly: DnaB intein splicing inhibitors, dose response, biochemical, cell-free fluorescence (AID 449749). Format: functional.

A short description of assay [11]: Luminescence Cell-Based Dose Response HTS to Identify Activators of Luciferase Translation or Activity in H4 […] Cells. [Related pubchem assays: 1829 (Project Summary), 1814 (Primary HTS)]. Format: functional.
The subject of another assay is H4. Briefly: Luminescence Cell-Based Dose Response HTS to Identify Activators of 5'UTR Stem-Loop Driven Prion Protein mRNA Translation in H4 Neuroglioblastoma Cells. [Related pubchem assays: 1829 (Project Summary), 1814 (Primary HTS)]. Conditions: Homo sapiens. The assay is classed as functional.

27 molecules from ChEMBL document CHEMBL1201862, “PubChem BioAssay data set” (2004) can be followed below.

Molecules are shown by their SMILES. The source made the active and inactive calls. Cut-off read from the data, not from the text of the source, for most assays here: actives have a measured EC50 and inactives only a lower limit.

T1 sequence (P11940 whole entry): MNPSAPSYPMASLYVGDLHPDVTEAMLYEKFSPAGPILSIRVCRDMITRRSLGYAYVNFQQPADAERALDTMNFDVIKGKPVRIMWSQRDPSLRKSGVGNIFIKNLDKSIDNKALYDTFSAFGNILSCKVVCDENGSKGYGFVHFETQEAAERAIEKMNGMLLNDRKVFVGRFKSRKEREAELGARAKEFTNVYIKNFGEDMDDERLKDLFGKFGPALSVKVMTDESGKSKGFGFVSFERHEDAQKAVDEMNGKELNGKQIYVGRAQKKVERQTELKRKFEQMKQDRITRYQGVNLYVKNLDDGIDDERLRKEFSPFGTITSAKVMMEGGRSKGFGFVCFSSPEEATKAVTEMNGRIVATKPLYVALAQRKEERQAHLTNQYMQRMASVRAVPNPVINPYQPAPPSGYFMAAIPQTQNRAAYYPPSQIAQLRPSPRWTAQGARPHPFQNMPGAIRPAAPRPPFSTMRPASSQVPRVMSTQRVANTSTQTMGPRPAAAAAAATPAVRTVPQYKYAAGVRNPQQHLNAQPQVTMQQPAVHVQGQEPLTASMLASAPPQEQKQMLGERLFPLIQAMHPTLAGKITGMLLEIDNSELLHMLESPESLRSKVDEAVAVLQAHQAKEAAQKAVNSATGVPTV

As to `COc1ccc(NS(=O)(=O)c2ccc(F)c(Cl)c2)cn1`, the IC50 was 46.2 µM (inactive) in assay [1] and 24.2 µM (inactive) in [2].

Regarding `Clc1ccccc1-c1ccc(CN2CCN(c3ccccc3)CC2)o1`, the IC50 at Protein skinhead-1 was > 100 µM (inactive).

In general, EC50 refers to the concentration that produces a half-maximal response. Regarding `Cn1c(CC(=O)Nc2ccccc2)cc2ccccc21`, the concentration for a half-maximal effect (EC50) in the assay “cells [3]” and in the assay “cells [4]” was > 350 µM (not active) throughout.

With `O=C(C1=C[C@@H](C2CC2)C[C@@H](OCCCCO)O1)N1CCN(Cc2ccc3c(c2)OCO3)CC1`, the EC50 in the assay “cells [3]” and in the assay “cells [4]” was > 350 µM (not active) in each case.

For `CCc1ccc(-c2nn(-c3cc(Cl)ccc3[N+](=O)[O-])c(=O)c3ccccc23)cc1`, the IC50 at Protein skinhead-1 is > 100 µM (inactive).

With `Nc1ccc2c(c1)C/C(=C/c1ccco1)C2=O`, the results for the EC50 in assay [5] and in assay [6] were 23 µM (active) and 14.3 µM (active), respectively.

As for `CCN(CC)C(=O)c1sc2nc(-c3cccs3)cc(-c3cccs3)c2c1N`, the EC50 in assay [5] and in [6] was > 300 µM (not active) throughout.

Regarding `CC(C)C(OC(=O)C1=Cc2ccccc2OC1)C(=O)NC1CCCC1` (stereo not given), the IC50 on Protein skinhead-1 is > 100 µM (inactive).

Regarding `CC/C(NN1CCCCCC1)=C1/C(=O)NC(=O)N(c2ccc(C)cc2)C1=O`, the EC50 in the assay “cells [3]” and in the assay “cells [4]” was > 350 µM (not active) each time.

Turning to `CC1=CC(C)(C)N2C(=O)C3(C(C#N)=C(N)OC4=C3C(=O)CC(C)(C)C4)c3c(C)c(C)cc1c32` (stereo not given), the EC50 in assay [5] and in [6] was > 300 µM (not active) in each case.

For `CCOc1ccc(-c2nnc(-c3cccs3)o2)cc1`, the IC50 on Protein skinhead-1 is > 100 µM (inactive).

`Cc1ccc(C(C(=O)NC(C)(C)C)N(Cc2ccccc2)C(=O)c2snc(C(N)=O)c2N)o1` (stereo not given): the IC50 in assay [7] is > 20 µM (inactive).

For the molecule `COc1ccc(C(=O)C2CCCN(C(=O)C3CCOCC3)C2)cc1OC` (stereo not given), the EC50 in the assay “cells [3]” and in the assay “cells [4]” was > 350 µM (not active) throughout.

Consider `Fc1ccc(NC(S)=Nc2ccc(Br)cc2)cc1`, for which the IC50 in assay [1] and in [2] was > 66 µM (inactive) in each case.

Take `COC(=O)c1ccccc1-n1c(CCC(=O)O)ccc1-c1ccc(F)cc1`: the EC50 in assay [5] and in [6] was > 300 µM (not active) throughout.

Turning to `CC1CCN(Cc2nnnn2CCCC(=O)NCCc2cnn(C)c2)CC1`, the EC50 in the assay “cells [3]” and in the assay “cells [4]” was > 350 µM (not active) each time.

With `O=C(NCCCN1CCOCC1)c1cc2c3ccccc3nc-2c(-c2cccc(Br)c2)[nH]1`, the CC50 in assay [8] was 19.4 µM (active). Further, in [7], the IC50 was > 20 µM (inactive).

Turning to `COCCn1cc(C(=O)NCc2cccs2)c2c3ccccc3n(C)c2c1=O`, the IC50 at Protein skinhead-1 is > 100 µM (inactive).

Take `Cc1cccc(NC(=S)Nc2ccc(Cl)c(Cl)c2)c1`: on Streptokinase A, the EC50 was 24.5 µM (active). In addition, the IC50 in assay [1] and in [2] was > 66 µM (inactive) throughout.

Regarding `O=C(CSc1n[nH]c2c3ccccc3nc-2n1)NCc1ccco1`, the IC50 in assay [1] and in [2] was > 66 µM (inactive) in each case.

What is called AC50 is the midpoint of the concentration-response curve, whichever way the signal moves. In the case of `OCCN(CCO)c1ccc(C(c2ccccc2Cl)c2ccc(N(CCO)CCO)cc2Cl)c(Cl)c1`, the results for the EC50 (in [9]; on Streptokinase A; in the assay with Streptococcus) were 4.01 µM (active), 4.84 µM (active) and 8.65 µM (active), respectively. Moreover, the AC50 in assay [10] was 1.91 µM (active). For the same molecule, the IC50 on Protein skinhead-1 is > 100 µM (inactive).

Regarding `Cc1nn(CC(C)C)c(Cl)c1C(=O)NC1CCC(C)CC1` (stereo not given), the EC50 in [11] was 0.258 µM (active); in the assay on H4, 1.19 µM (active).

As for `O=C1CCn2c1c(O)c1ccccc1c2=O`, the values for the IC50 in assay [1] and in [2] were > 66 µM (inactive) and 43.6 µM (inactive), respectively.

Take `CC(C)=CCc1c(O)cc(O)c2c(=O)c(O[C@@H]3O[C@@H](C)[C@H](O)[C@@H](O)[C@H]3O)c(-c3ccc(O)cc3)oc12`: the IC50 in assay [7] was > 20 µM (inactive).

As to `Cc1ccc(-c2nc(/C=N/c3ccc(O)cc3)c(O)o2)cc1`, the EC50 in [5] and in [6] was > 300 µM (not active) each time.

Regarding `CNS(=O)(=O)c1ccc2c(c1)nc(S)n2C`, the IC50 on Protein skinhead-1 was > 100 µM (inactive).

Regarding `CCCCOc1c(Br)cc(/C=N/O)cc1OCC`, the EC50 in [5] and in assay [6] was > 300 µM (not active) each time.
